The subject of assay [1] is A875 cells. The assay is described as follows: Wound healing (migration), A875. It counts as cell-based. Particulars: wound healing, 0, 5, 25 μM, 24 h or 48 h. The protocol: A375 GFP, A875 GFP, A375 PDPN^−/−, and A875 PDPN^+/+ cells were all seeded in 12-well plates at a density of 5 × 10^5 cells/well. When the cells reached 100% confluence the next day, the straight wound was scraped in each cultured well with a 20 µL pipette tip. Then the cells were washed repeatedly with complete DMEM to remove the cellular debris, and the medium was changed to a low serum medium containing 0.05% FBS. The scratch-treated cells were subsequently cultured for an additional indicated time and imaged at 0 h, 12 h, 24 h and 48 h. Quantification of wound closure was accomplished by measuring the distance between the phase contrast images’ anterior edges of the contralateral surfaces using ImageJ software. As for peptide (CY12-RP2) function experiments, images of phase contrast for A375 GFP and A875 GFP cells were captured at 0 h before peptide administration. The cells were then treated with CY12-RP2 (0 μM, 5 μM, 25 μM) for 24 h or 48 h, and then images were acquired again. Handling of the experimental results were carried out as previously described.

The subject of assay [2] is A875 cells. The assay is classed as cell-based. The protocol: (§1) Cell viability was determined using a CCK8 kit. Melanoma cells were plated into 96-well plates at a density of 5 × 10^3 cells/well. The cells were then treated with peptides at the determined concentrations for 24, 48, and 72 h. The CCK-8 (10 μL/ well) was pipetted into each well and the cells were incubated at 37 °C for 1~3 h. The viable cells were calculated by performing absorbance readings at 450 nm using a microplate reader (BioTek).

In assay [3] the test system is A375 cells. It counts as cell-based. As to the method: as §1
In assay [4] the test system is PDPN in A875 cells. The assay is described as follows: Immunofluorescence binding/co-localization with PDPN, A875. Particulars: 5 μM, 10 h, 37 ℃. It counts as cell-based. As to the method: Immunofluorescence analysis was used for antigen localization and quantification. For PDPN immunofluorescence staining, melanoma cells (A375, A875) were seeded in coverslips, cultured for 24 h, and fixed using 4% paraformaldehyde for 15 min at room temperature (RT). The cells were then permeabilized with 0.2% Triton X-100 in PBS for 10 min. Cells were blocked using 1% bovine serum albumin (BSA) in PBS for 30 min at RT, and incubated with the primary antibody overnight at 4 ℃. Afterwards, cells were washed three times with PBS containing 0.01% Triton X-100 for 5 min, and incubated with Alexa Fluor 568–conjugated secondary antibodies at RT for 1 h. Lastly, the nuclei were dyed with 4’,6-diamidino-2-phenylindole (DAPI) for 5 min at RT, and the slides were imaged using a NIKON laser scanning confocal microscope. To further verify the specificity binding ability of CY12-RP2 with PDPN, immunofluorescence was detected for analysis in melanoma cells. Briefly, A375 or A875 cells were incubated with CY12-RP2 at a concentration of 5 μM for 10 h at 37 ℃, and then washed with DMEM to remove the unbound peptide. The anti-PDPN primary antibody was then incubated for 4 h at RT. Further experimental procedures were performed as described above. […]

For assay [5], the system named is Wnt/β-catenin signaling pathway. The assay is described as follows: Western blot, EMT and Wnt/β-catenin pathway, melanoma cells. It counts as cell-based. Particulars: melanoma cells treated with peptide. As to the method: Melanoma cells were cultured in a 60 mm dish with a complete medium and various peptide concentrations (0 μM, 5 μM, 25 μM). Protein was extracted after cells were cultured or treated for 48 h using protein lysis buffer, separated using a 10% or 15% Bis–Tris PAGE gel (Epizyme Biomedical Technology, Shanghai, China), and transferred onto a PVDF membrane (Thermo Fisher Scientific) according to standard techniques. The Western blots were imaged using Bio-rad Chemidoc MP and quantified using ImageJ software (NIH).
Fig. S4: The inhibition of cells metastasis and invasion by CY12-RP2 can be […]
(A, B) The inhibition of CY12-RP2 on the migration capacity of melanoma cell lines was reversed by SKL2001 (A). Statistical analysis was performed to determine the migrated distance (B). The power field scale bar, 100 μm. (C, D) Effect of CY12-RP2 on the invasive ability of melanoma cell lines were reversed by SKL2001 (C). […]
(A) TUNEL analysis of apoptosis was conducted on orthotopic xenografts tumor sections using fluorescence staining. […] (B) Fluorescence staining of Ki67 was carried out on orthotopic xenograft tumor sections.
The power field scale bar, 100 μm. (C) Serum His-CY12-RP2 levels of the orthotopic xenografts mice treated by various dosage of CY12-RP2 were measured by His-ELISA kit. […]
kit. (E) Serum ALT, AST, TG, and γ-GT levels of the orthotopic xenografts model were measured by ELISA. […]
(Immunoblotting shows a protein as a band on a membrane.)

Assay [6] concerns immune cells in lungs and spleens. The assay is described as follows: Immunofluorescence of immune cell infiltration, spleen and lung, lung metastasis model. The assay is classed as in vivo, BALB/c mice. As to the method: Immunofluorescence analysis was used for antigen localization and quantification. For PDPN immunofluorescence staining, melanoma cells (A375, A875) were seeded in coverslips, cultured for 24 h, and fixed using 4% paraformaldehyde for 15 min at room temperature (RT). The cells were then permeabilized with 0.2% Triton X-100 in PBS for 10 min. Cells were blocked using 1% bovine serum albumin (BSA) in PBS for 30 min at RT, and incubated with the primary antibody overnight at 4 ℃. Afterwards, cells were washed three times with PBS containing 0.01% Triton X-100 for 5 min, and incubated with Alexa Fluor 568–conjugated secondary antibodies at RT for 1 h. Lastly, the nuclei were dyed with 4’,6-diamidino-2-phenylindole (DAPI) for 5 min at RT, and the slides were imaged using a NIKON laser scanning confocal microscope. To further verify the specificity binding ability of CY12-RP2 with PDPN, immunofluorescence was detected for analysis in melanoma cells. Briefly, A375 or A875 cells were incubated with CY12-RP2 at a concentration of 5 μM for 10 h at 37 ℃, and then washed with DMEM to remove the unbound peptide. The anti-PDPN primary antibody was then incubated for 4 h at RT. Further experimental procedures were performed as described above. To determine the immune cell infiltration and proportion changes in the lungs and spleens in the pulmonary metastasis mouse model, sequential frozen slices (12 μm) were prepared and incubated with CD3, CD4, CD8, Foxp3, CD56, F4/80, and CD11c primary antibodies for 1 h, and then incubated with Alexa Fluor 488-conjugated goat anti-mouse F(ab’)2 and Alexa Fluor 647-conjugated goat anti-mouse F(ab’)2 in PBS containing 1% BSA and 1% goat serum for 30 min. All incubations were conducted under coverslips at RT, and then repeatedly washed 3 times with PBS. Coverslips were mounted after staining cell nuclei with DAPI, and imaged using a NIKON laser scanning confocal microscope.

Read-outs that look alike come from different tables or passages of the source. Peptide text beside a SMILES is read from it.

What is called IC50 is the concentration at which inhibition is half-maximal. Read a low IC50 as greater potency in that assay. As to `CC(C)C[C@H](NC(=O)[C@H](Cc1ccc(O)cc1)NC(=O)[C@@H](N)[C@@H](C)O)C(=O)N[C@@H](CS)C(=O)N[C@H](C(=O)N[C@@H](C)C(=O)N[C@@H](CS)C(=O)N[C@@H](CC(=O)O)C(=O)N[C@@H](Cc1ccc(O)cc1)C(=O)N[C@H](C(=O)N[C@@H](Cc1c[nH]cn1)C(=O)N[C@@H](Cc1c[nH]cn1)C(=O)O)[C@@H](C)O)[C@@H](C)O` [CY12-RP2] (H-TYLCTACDYTHH-OH; N-terminus and C-terminus assumed), the migration entry in assay [1] was “inhibited migration at the corresponding time both in A375 and A875 cells”. Further, the IC50 in assay [2] (48 h) is 654 µM; in assay [2] (72 h), 117 µM; in assay [3] (24 h) it was 602 µM; in assay [3] (48 h), 118 µM; in assay [3] (72 h) it was 55.2 µM. The “cell growth inhibition (in words)” value was “relatively diminished impact” in assay [2] (PDPN underexpressed A875, CCK8, various concentrations) and “dramatically inhibited cell growth in a dose-dependent manner” in assay [3] (PDPN overexpressed A375, CCK8, various concentrations). For the same molecule, in assay [4], the “fluorescence and co-localization with PDPN” value is recorded as “minimal fluorescence”. For the same molecule, the Wnt/β-catenin pathway result in assay [5] is on record as “could inhibit the Wnt/β-catenin pathway”. Further, in assay [6] (immunofluorescence), the M2-type macrophages entry is given as “decreased proportion”. The “NK cells and M1-type macrophages” value in assay [6] (immunofluorescence) is “increased proportions”. Further, in assay [6] (multiplex immunofluorescence), the “infiltration of CD3 + CD4 + T cells and CD3 + CD8 + T cells” value is reported as “remarkable increase”. Moreover, in assay [6] (multiplex immunofluorescence), the “infiltration of Treg cells” value is reported as “reduction”.
